Assays:
[1] = Association of Vitamin D therapy, serum PTH and CaxP product quintiles with hospitalization outcomes in hemodialysis patients (cohort, negative binomial regression); type: in vivo, human; conditions: for association between quintiles of PTH, CaxP and hospital outcomes (morbidity): interaction of laboratory quintiles and Vitamin D therapy
Excerpt: Elevated PTH and CaxP levels have been considered risk factors for increased mortality and morbidity (M&M) in HD patients. […] To date, the relationship between M&M, PTH, CaxP product and the impact of Vitamin D therapy, however, has not been addressed. Thus, by quintiles, an analysis was made of the baseline distribution of serum iPTH, and CaxP product levels in HD patients who received paricalcitol (P), calcitriol (C) or no Vitamin D (NoD) therapy in regard to their relationship with hospitalization outcomes as defined by hospitalizations per year (HOSP) and hospital days per year (DAYS). The cohort consisted of 11,340 adult patients new to HD between January 1999 and November 2001; there were 2,316 patients treated with P; 2,299 patients treated with C and 6,725 patients NoD.

[2] = Vitamin D therapy and K/DOQI guidelines on hospitalization outcomes in hemodialysis patients (cohort, negative binomial regression); type: in vivo, human; conditions: for annual hospitalizations (HOSP) and hospital days (DAYS), NoD group compared with treated group: NoD (N=3007) vs P (N=1318) or C (N=1432), therapy at least 180 days
Excerpt: An examination was made of the relationship between Vitamin D therapy and K/DOQI guidelines on hospitalization outcomes, as a surrogate for morbidity, in hemodialysis (HD) patients. The cohort consisted of U.S. patients who were new to HD during the period from January 1999 to December 2001 and who received paricalcitol (P), calcitriol (C) or no vitamin D (NoD) therapy for at least 180 days. To allow for patients to be stabilized after initiation to Vitamin D or NoD therapy, baseline laboratory values were defined over the initial 90-180 days of the observation period; mean values over this baseline period were assessed relative to K/DOQI guidelines. Patients with baseline laboratory measurements within K/DOQI guidelines served as reference groups. An interaction term was created to examine the relationship between Vitamin D therapy and the K/DOQI baseline assessment. Outcomes were defined by annual hospitalizations (HOSP) and hospital days (DAYS). Analysis was performed using negative binomial regression modeling.

[3] = recent data; cited from earlier work

Structure (SMILES)	DAYS in the 2nd quintile of CaxP compared to the reference group (3rd quintile) ([1]; human, in vivo)	association between quintiles of PTH, CaxP and hospital outcomes (morbidity) [1]	annual hospitalizations (HOSP) and hospital days (DAYS), NoD group compared with treated group ([2]; p<0.05)	increase in DAYS for patients outside of K/DOQI guidelines for Phos ([2]; interaction assessment, reference: patients within K/DOQI guidelines, p<0.05) [%]	survival in HD patients [3]	fewer DAYS (hospital days per year) compared to C group ([1]; 2,316 patients P vs 2,299 C, p=0.0036) [%]	fewer DAYS (hospital days per year) compared to NoD group ([1]; 2,316 patients P vs 6,725 NoD, p<0.0001) [%]	difference in outcomes for patients within K/DOQI guidelines compared to those outside of guidelines ([2]; HOSP and DAYS)	hospitalization outcomes, ranking among groups ([2]; P vs C vs NoD)
C=C1/C(=C\C=C2/CCC[C@]3(C)[C@@H]([C@H](C)CCCC(C)(C)O)CC[C@@H]23)C[C@@H](O)C[C@@H]1O [calcitriol, 1α,25-dihydroxy-vitamin D3]	significantly fewer DAYS	no significant associations	significantly more HOSP and DAYS	40	–	–	–	–	–
C[C@H](/C=C/[C@H](C)C(C)(C)O)[C@H]1CC[C@H]2/C(=C/C=C3C[C@@H](O)C[C@H](O)C3)CCC[C@]12C [paricalcitol, 19-nor-1α,3β,25-trihydroxy-9,10-secoergosta-5(Z); 7(E),22(E)-triene]	–	not associated with morbidity	significantly more HOSP and DAYS	–	associated with survival benefit	72	90	no significant difference	fewest hospitalization outcomes

— patent publication US20050192256A1, “Methods of using vitamin D compounds in the treatment of patients undergoing hemodialysis” (priority 2003, published 2005)
